Laboratory results as given in US9730914B2, “3,5-diaminopyrazole kinase inhibitors” (Axikin Pharmaceuticals, Inc., priority 2014, dated 2017).

Legend:
JAK3 = target: T1, JAK3 (Homo sapiens, UniProt P52333); test: Kinase competition binding assay (Kd, qPCR readout), JAK3; settings: for Kd: Kd class, JAK3, read-out: JAK3 Activity Level; for RCK:JAK3 selectivity ratio: ratio Kd (JAK3): Kd (RCK)
T1 construct: made in house; host or cells: E. coli BL21-derived host (T7 phage) or HEK-293
Method in brief: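 Kd values were derived from 11-point, 3-fold compound series at 1% DMSO, usually topping at 30,000 nM, with retesting from a lower top when under 0.5 nM. It competed with bead-immobilized ligand for 1 h at room temperature, and the captured kinase was measured by qPCR after elution.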

JAK2 = target: T2, JAK2 (Homo sapiens, UniProt O60674); test: Kinase competition binding assay (Kd, qPCR readout), JAK2; settings: for Kd: Kd class, JAK2, read-out: JAK2 Activity Level; for RCK:JAK2 selectivity ratio: ratio Kd (JAK2): Kd(RCK)
T2 construct: made in house; host or cells: E. coli BL21-derived host (T7 phage) or HEK-293
T2 sequence (O60674 840-1132 limits assumed): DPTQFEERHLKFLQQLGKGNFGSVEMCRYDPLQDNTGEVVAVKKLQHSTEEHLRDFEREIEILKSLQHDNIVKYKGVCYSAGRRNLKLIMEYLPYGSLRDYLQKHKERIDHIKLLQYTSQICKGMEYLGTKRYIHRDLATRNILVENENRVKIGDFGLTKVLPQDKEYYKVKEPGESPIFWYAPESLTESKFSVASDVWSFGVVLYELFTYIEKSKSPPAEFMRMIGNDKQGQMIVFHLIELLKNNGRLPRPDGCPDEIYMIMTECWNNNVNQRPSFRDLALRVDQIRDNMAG
Method in brief: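 Competition binding: DNA-tagged kinase (T7 phage or HEK-293-expressed), immobilized biotinylated ligand beads and compound in SeaBlock/PBS/Tween/DTT buffer, 1 hour at room temperature; bound kinase eluted and quantified by qPCR. Kd from 11-point 3-fold dilution, top 30,000 nM typically, final DMSO 1%.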

[1] = target: T3, kinase domain protein of RC kinase (RCK) (Homo sapiens, UniProt Q56UN5); test: Kinase competition binding assay (Kd, qPCR readout), RC kinase; settings: Kd class, read-out: RCK Activity Level
T3 construct: made in house; host or cells: E. coli BL21-derived host (T7 phage) or HEK-293
T3 sequence (Q56UN5 1061-1324 limits assumed): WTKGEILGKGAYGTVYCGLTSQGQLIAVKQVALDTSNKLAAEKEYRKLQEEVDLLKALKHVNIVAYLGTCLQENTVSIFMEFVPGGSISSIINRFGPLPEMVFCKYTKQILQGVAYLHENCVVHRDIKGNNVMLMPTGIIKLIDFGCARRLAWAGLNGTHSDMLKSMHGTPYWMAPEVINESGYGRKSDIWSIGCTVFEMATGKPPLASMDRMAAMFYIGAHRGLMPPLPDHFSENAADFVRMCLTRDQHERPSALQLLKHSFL
Method in brief: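 Competition binding: DNA-tagged kinase (T7 phage or HEK-293-expressed) plus immobilized biotinylated ligand beads and compound, 1 h at room temperature, 1% DMSO. Bead-bound kinase eluted and quantified by qPCR. Kd from 11-point 3-fold dilution, top 30,000 nM, retested lower if below 0.5 nM.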

T1 sequence (P52333 811-1124 limits assumed): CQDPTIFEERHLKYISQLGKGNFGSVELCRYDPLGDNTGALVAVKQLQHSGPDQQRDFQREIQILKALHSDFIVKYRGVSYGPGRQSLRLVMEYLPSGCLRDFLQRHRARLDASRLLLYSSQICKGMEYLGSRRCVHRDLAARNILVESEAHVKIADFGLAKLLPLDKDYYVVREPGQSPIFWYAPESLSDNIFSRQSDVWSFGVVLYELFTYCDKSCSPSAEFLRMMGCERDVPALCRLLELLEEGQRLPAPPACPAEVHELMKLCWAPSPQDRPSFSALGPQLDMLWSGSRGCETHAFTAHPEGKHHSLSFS

Row | Kd (JAK3) [nM] | Kd (JAK2) [nM] | RCK:JAK2 selectivity ratio (JAK2) | Kd [1] [nM] | Compound | RCK:JAK3 selectivity ratio (JAK3)
1 | 50 to 100 | < 50 | D (D represents Kd(JAK2): Kd (RCK)<1) | 50 to 100 | NC(=O)c1c(Nc2ccc(-c3ccccc3)cc2)n[nH]c1NCc1ccc(O)cc1 [reference compound] | C (C represents 1<Kd (JAK3): Kd (RCK)<10)
2 | 50 to 100 | < 50 | D (D represents Kd(JAK2): Kd (RCK)<1) | < 50 | CC(C)(C)c1ccc(Nc2n[nH]c(NCc3ccc(O)cc3)c2C(N)=O)cc1 [reference compound] | C (C represents 1<Kd (JAK3): Kd (RCK)<10)
3 | < 50 | < 50 | D (D represents Kd(JAK2): Kd (RCK)<1) | 50 to 100 | NC(=O)c1c(Nc2ccc3[nH]ncc3c2)n[nH]c1NCc1ccc(O)cc1 [reference compound] | D (D represents Kd (JAK3): Kd(RCK)<1)
4 | < 50 | < 50 | D (D represents Kd(JAK2): Kd (RCK)<1) | < 50 | NC(=O)c1c(Nc2ccc(N3CCN(C(=O)N4CCCC4)CC3)cc2)n[nH]c1NCc1ccc(O)cc1 [reference compound] | C (C represents 1<Kd (JAK3): Kd (RCK)<10)
5 | < 50 | < 50 | D (D represents Kd(JAK2): Kd (RCK)<1) | < 50 | NC(=O)c1c(Nc2ccc(N3CCC(F)CC3)cc2)n[nH]c1NCc1ccc(O)cc1 [reference compound] | D (D represents Kd (JAK3): Kd(RCK)<1)
6 | < 50 | < 50 | D (D represents Kd(JAK2): Kd (RCK)<1) | < 50 | NC(=O)c1c(Nc2ccc(N3CCN(Cc4ccccc4)CC3)cc2)n[nH]c1NCc1ccc(O)cc1 [reference compound] | C (C represents 1<Kd (JAK3): Kd (RCK)<10)
7 | < 50 | < 50 | D (D represents Kd(JAK2): Kd (RCK)<1) | < 50 | NC(=O)c1c(Nc2ccc(N3CCS(=O)(=O)CC3)cc2)n[nH]c1NCc1ccc(O)cc1 [reference compound] | D (D represents Kd (JAK3): Kd(RCK)<1)
8 | < 50 | < 50 | D (D represents Kd(JAK2): Kd (RCK)<1) | < 50 | NC(=O)c1c(Nc2ccc(N3CCCCC3)cn2)n[nH]c1NCc1ccc(O)cc1 [reference compound] | D (D represents Kd (JAK3): Kd(RCK)<1)
9 | < 50 | < 50 | D (D represents Kd(JAK2): Kd (RCK)<1) | < 50 | NC(=O)c1c(Nc2ccc(N3CCC(Cl)CC3)cc2)n[nH]c1NCc1ccc(O)cc1 [reference compound] | C (C represents 1<Kd (JAK3): Kd (RCK)<10)
10 | < 50 | < 50 | D (D represents Kd(JAK2): Kd (RCK)<1) | < 50 | NC(=O)c1c(Nc2ccc(CN3CCCC3)cc2)n[nH]c1NCc1ccc(O)cc1 [reference compound] | D (D represents Kd (JAK3): Kd(RCK)<1)
11 | < 50 | < 50 | D (D represents Kd(JAK2): Kd (RCK)<1) | < 50 | CN(C)C1CCN(c2ccc(Nc3n[nH]c(NCc4ccc(O)cc4)c3C(N)=O)cc2)CC1 [reference compound] | D (D represents Kd (JAK3): Kd(RCK)<1)
12 | < 50 | < 50 |  | < 50 | NC(=O)c1c(Nc2ccc(N3CCOCC3)c(F)c2)n[nH]c1NCc1ccc(O)cc1 [reference compound] | 
13 | < 50 | < 50 | D (D represents Kd(JAK2): Kd (RCK)<1) | < 50 | NC(=O)c1c(Nc2ccc(N3CCN(C(=O)N4CCOCC4)CC3)cc2)n[nH]c1NCc1ccc(O)cc1 [reference compound] | C (C represents 1<Kd (JAK3): Kd (RCK)<10)
14 | < 50 | < 50 | D (D represents Kd(JAK2): Kd (RCK)<1) | < 50 | CC(=O)Nc1cccc(Nc2n[nH]c(NCc3ccc(O)cc3)c2C(N)=O)c1 [reference compound] | D (D represents Kd (JAK3): Kd(RCK)<1)
15 | < 50 | < 50 | D (D represents Kd(JAK2): Kd (RCK)<1) | < 50 | CN1CCN(c2ccc(Nc3n[nH]c(NCc4ccc(O)cc4)c3C(N)=O)cc2Cl)CC1 [reference compound] | C (C represents 1<Kd (JAK3): Kd (RCK)<10)
16 | < 50 | < 50 | D (D represents Kd(JAK2): Kd (RCK)<1) | < 50 | NC(=O)c1c(Nc2ccc(F)cc2)n[nH]c1NCc1ccc(O)cc1 [reference compound] | D (D represents Kd (JAK3): Kd(RCK)<1)
17 | < 50 | < 50 | D (D represents Kd(JAK2): Kd (RCK)<1) | 50 to 100 | N#Cc1cccc(Nc2n[nH]c(NCc3ccc(O)cc3)c2C(N)=O)c1 [reference compound] | D (D represents Kd (JAK3): Kd(RCK)<1)
18 | < 50 | < 50 | D (D represents Kd(JAK2): Kd (RCK)<1) | < 50 | NC(=O)c1c(Nc2ccc(CN3CCCCC3)cc2)n[nH]c1NCc1ccc(O)cc1 [reference compound] | D (D represents Kd (JAK3): Kd(RCK)<1)
19 | < 50 | < 50 | D (D represents Kd(JAK2): Kd (RCK)<1) | < 50 | NC(=O)c1c(Nc2ccc(N3CCSCC3)cc2)n[nH]c1NCc1ccc(O)cc1 [reference compound] | C (C represents 1<Kd (JAK3): Kd (RCK)<10)

Row | Compound | Kd (JAK3) [nM] | Kd (JAK2) [nM] | RCK:JAK2 selectivity ratio (JAK2) | Kd [1] [nM] | RCK:JAK3 selectivity ratio (JAK3)
20 | CC(C)N1CCN(c2ccc(Nc3n[nH]c(NCc4ccc(O)cc4)c3C(N)=O)cc2)CC1 [reference compound] | 50 to 100 | < 50 | C (C represents 1<Kd (JAK2): Kd (RCK)<10) | < 50 | B (B represents 10<Kd (JAK3): Kd (RCK)<100)
21 | CC(C)N1CCN(c2ccc(Nc3n[nH]c(NCc4ccc(O)cc4)c3C(N)=O)cc2Cl)CC1 [reference compound] | < 50 | < 50 | C (C represents 1<Kd (JAK2): Kd (RCK)<10) | < 50 | C (C represents 1<Kd (JAK3): Kd (RCK)<10)
22 | CC1CCN(C2CCN(c3ccc(Nc4n[nH]c(NCc5ccc(O)cc5)c4C(N)=O)cc3)CC2)CC1 [reference compound] | < 50 | < 50 | C (C represents 1<Kd (JAK2): Kd (RCK)<10) | < 50 | D (D represents Kd (JAK3): Kd(RCK)<1)
23 | C[C@@H]1CC(c2ccc(Nc3n[nH]c(NCc4ccc(O)cc4)c3C(N)=O)cn2)C[C@H](C)O1 (stereo partly drawn) [reference compound] | < 50 | < 50 | C (C represents 1<Kd (JAK2): Kd (RCK)<10) | < 50 | C (C represents 1<Kd (JAK3): Kd (RCK)<10)
24 | NC(=O)c1c(Nc2ccc(N3CCCCC3)cc2)n[nH]c1NCc1ccc(O)cc1 [reference compound] | < 50 | < 50 | C (C represents 1<Kd (JAK2): Kd (RCK)<10) | < 50 | C (C represents 1<Kd (JAK3): Kd (RCK)<10)
25 | Cc1cc(Nc2n[nH]c(NCc3ccc(O)cc3)c2C(N)=O)ccc1N1CCN(C)CC1 [reference compound] | < 50 | < 50 | C (C represents 1<Kd (JAK2): Kd (RCK)<10) | < 50 | C (C represents 1<Kd (JAK3): Kd (RCK)<10)
26 | Cc1cc(Nc2n[nH]c(NCc3ccc(O)cc3)c2C(N)=O)ccc1N1CCCCC1 [reference compound] | 50 to 100 | < 50 | C (C represents 1<Kd (JAK2): Kd (RCK)<10) | < 50 | C (C represents 1<Kd (JAK3): Kd (RCK)<10)
27 | NC(=O)c1c(Nc2ccc(-c3cnco3)cc2)n[nH]c1NCc1ccc(O)cc1 [reference compound] | < 50 | < 50 | C (C represents 1<Kd (JAK2): Kd (RCK)<10) | < 50 | C (C represents 1<Kd (JAK3): Kd (RCK)<10)
28 | NC(=O)c1c(Nc2ccc(N3CCN(c4ncccn4)CC3)cc2)n[nH]c1NCc1ccc(O)cc1 [reference compound] | < 50 | < 50 | C (C represents 1<Kd (JAK2): Kd (RCK)<10) | < 50 | C (C represents 1<Kd (JAK3): Kd (RCK)<10)
